Reference: US20030008857A1, “Photodynamic therapy (PDT) in combination with factors that bind cell surface apoptosis-inducing receptors” (priority 1999, published 2003)

What was measured:
Jurkat T cells = test: DNA fragmentation (sub-diploid DNA) by PI staining and flow cytometry; type: cell-based, human; settings: for cells exhibiting DNA fragmentation (sub-diploid DNA levels): 690 nm light 5 J/cm^2, analysis 24 hours later
Protocol: The human Jurkat T cell line containing a neomycin resistance gene was obtained from Dr. Charles Rudin (University of Chicago). Cells were maintained in RPMI 1640 medium containing 10% heat-inactivated fetal calf serum (FCS) with penicillin (100 U/mL), streptomycin (100 μg/mL), 20 mM HEPES, 2 mM L-glutamine and G418 (1 μg/ml) purchased from Gibco BRL (Burlington, Ontario) in a CO2 incubator at 37° C. To elicit apoptosis with PDT, Jurkat cells were incubated with different amounts of liposomally formulated benzoporphyrin derivative monoacid ring A (BPD-MA, verteporfin, QLT PhotoTherapeutics, Inc., Vancouver, Canada) for one hour at 37° C. under light-protected conditions. The culture medium used for experiments was identical to that used for the passage of the cells except that FCS was used at a concentration of 5%. Experiments were conducted either in 6-well culture plates at 5×10^6 cells in a volume of 4 ml per well or in 96-well microtiter plates at 1×10^5 cells per well at 0.2 ml per well. Cells were irradiated with light of a wavelength of 690 nm delivered at 65-73 mW/sec from light emitting diodes (LED) to achieve a total light dose of 5 J/cm^2. Cells were returned to the incubator until required for analysis.
FasL and TRAIL as used were recombinant preparations. FasL was obtained from Upstate Biotechnology (Lake Placid NY) and corresponded to amino acids 103-281 of the soluble domain of human FasL. TRAIL was obtained from BIOMOL Research Laboratories (Plymouth Meeting, Pa.) and corresponded to residues 114-281 of the soluble domain of human TRAIL. FasL and TRAIL were usually added immediately following the treatment of cells with PDT, although in one series of experiments these factors were added at 1, 2 or 3 hours post-irradiation.
The proportion of cells containing sub-diploid levels of DNA 24 hours following treatment was determined using a propidium iodide (“PI”) fluorescence analysis procedure as described by Telford et al. (“Rapid Quantitation of Apoptosis in Pure and Heterogeneous Cell Populations Using Flow Cytometry” J. Immunol Methods 172:1-6 (1994)) or by Darzynkieicz et al. (“Features of Apoptotic Cells Measured by Flow Cytometry”, Cytometry, 13:795-808 (1992)).
Twenty four hours following PDT, 5×10^5 cells were washed twice with ice-cold PBS and then permeablized and fixed in 80% ethanol at 4° C. for one hour. The cells were again washed in ice-cold PBS and stained with PI (50 μg/mL) in PBS with simultaneous deoxyribose nuclease-free ribonuclease A (5 U/mL) treatment. These samples were analyzed by flow cytometry. The percentage of apoptotic cells was calculated using single color analysis for PI fluorescence with a Coulter XL flow cytometer (Coulter Electronics, Inc., Hialeah, Fla.). […] The degree of separation between the apoptotic population and the G0/G1 peak is readily apparent and the percentage of apoptotic cells is determined from the subsequent histogram.

HeLa/Bcl-2 cells = test: MTT cell viability assay; type: cell-based
Protocol: (§1) HeLa cells were from the American Type Culture Collection (Manassas, Va.). Cells were grown in Dulbecco's modified Eagles medium (DMEM) supplemented with penicillin (100 U/ml), streptomycin (100 μg/ml), 2 mM L-glutamine, 1 mM HEPES buffer, and 10% heat-inactivated fetal bovine serum (FBS). HeLa cells over-expressing Bcl-2 and Bcl-xL were generated as described (Vander Heiden et al.). Briefly, Bcl-2 and Bcl-xL inserts were cloned into an EcoRI site of a pSFFV-neo vector (Fuhlbrigge et al.). Vectors containing inserts, or no insert (neo), were transfected into HeLa cells by electroporation. After selection in G418 (Gibco/BRL Life Technologies), cells were cloned by limiting dilution and transfectants screened for Bcl-xL or Bcl-2 by Western blot analysis. Transfected cell lines were maintained in complete DMEM with G418 (10 μg/ml).
(§2) For treatments with TRAIL and PDT, cells were incubated with 0-100 ng/ml verteporfin for 60 min at 37° C. in complete DMEM with 2% FBS or incubated with medium alone. Cells were light protected or exposed to blue fluorescent light to give a total dose of 1 J/cm^2. For experiments where cells were treated with 0-1000 ng/ml TRAIL (BIOMOL, Plymouth Meeting, Pa.), this compound was added immediately after light treatment to HeLa cells in complete DMEM with 10% FBS. Cells were maintained at 37° C. with 5% CO2
(§3) To assess their viability, cells were cultured in 96-well microtiter plates and the MTT (3-(4,5)-dimethylthiazol-2-yl)-2,5-diphenyl tetrazolium bromide) calorimetric assay was performed as described (Mosmann et al.) with modifications. Following treatment, culture medium was decanted and replaced with complete DMEM containing 10% FBS. At 24 h following treatment, culture medium was aspirated and 50 μg of MTT in 100 μl of DMEM containing 2% FBS was added to each well. The reaction was stopped 2 h later by the addition of 150 μl of acidified isopropanol. Color development was measured at 590 nm with a microtiter plate reader. The result obtained for PDT, TRAIL or TRAIL plus PDT treatments was compared to the MTT value obtained for cells not given any treatment and expressed as percentages (%) of the control result.

HeLa/Bcl-xL cells = test: MTT cell viability assay; type: cell-based
Protocol: as §1, §2, §3

HeLa/neo cells = test: MTT cell viability assay; type: cell-based
Protocol: as §1, §2, §3

[1] = TRAIL in combination with verteporfin PDT, 24 hours
[2] = TRAIL up to 25 ng/ml, 24 hours post-treatment
[3] = PDT with verteporfin at 25 or 50 ng/ml, blue fluorescent light 1 J/cm^2, 24 hours

Substance: TRAIL: recombinant, residues 114-281 of the soluble domain of human TRAIL (BIOMOL)
- increase in proportion of cells with sub-diploid DNA versus light-treated control cells (Jurkat T cells; TRAIL 20 ng/ml added after PDT with verteporfin 2 ng/ml, 5 J/cm^2, 24 hours): approximately eight-fold
- increase in the number of cells displaying DNA fragmentation (Jurkat T cells; TRAIL 20 ng/ml by itself, 24 hours (FIG. 2)): two-fold
- proportion of cells with sub-diploid DNA compared with PDT alone (Jurkat T cells; TRAIL 20 ng/ml or FasL 7.5 ng/ml added after PDT with verteporfin 0.5 and 1 ng/ml): a greater proportion of cells contained a sub-diploid level of DNA
- nature of the combined effect on DNA fragmentation (Jurkat T cells; TRAIL 20 ng/ml with PDT (verteporfin 2 ng/ml) versus each alone): greater than additive
- cells with induced DNA fragmentation (Jurkat T cells; TRAIL 1000 ng/ml, within 24 hours): approximately 60%
- DNA fragmentation induced by the factor without PDT across addition times (Jurkat T cells; added at 5 minutes, 1, 2 or 3 hours, FasL 7.5 ng/ml, TRAIL 20 ng/ml, individually or in combination): a comparable level of DNA fragmentation
- change of the combined effect with PDT on DNA fragmentation (Jurkat T cells; factor added at 3 hours post-PDT (verteporfin 2 ng/ml)): a modest decline
- capacity to accentuate PDT-mediated apoptosis (DNA fragmentation) (Jurkat T cells; factor added up to 3 hours after PDT (verteporfin 2 ng/ml), FasL 7.5 ng/ml, TRAIL 20 ng/ml): still demonstrable
- cell viability (HeLa/Bcl-2 cells; TRAIL at 500 ng/ml, 24 hours): a significant degree of protection against TRAIL
- cell viability compared with PDT or TRAIL alone and with the expected additive effect (HeLa/Bcl-2 cells; [1]): significantly decreased cell viability
- cell viability (HeLa/Bcl-2 cells; [2]): little or no loss of cell viability
- cell viability (HeLa/Bcl-xL cells; TRAIL at 500 ng/ml, 24 hours): a significant degree of protection against TRAIL
- cell viability compared with PDT or TRAIL alone and with the expected additive effect (HeLa/Bcl-xL cells; [1]): significantly decreased cell viability
- cell viability (HeLa/Bcl-xL cells; [2]): little or no loss of cell viability
- cell viability (HeLa/neo cells; TRAIL at 500 ng/ml, 24 hours): a complete loss of viability
- cell viability (HeLa/neo cells; TRAIL at 50 and 100 ng/ml, 24 hours): a loss in viability
- cell viability compared with PDT or TRAIL alone and with the expected additive effect (HeLa/neo cells; [1]): significantly decreased cell viability
- cell viability (HeLa/neo cells; [2]): little or no loss of cell viability

Substance: benzoporphyrin derivative monoacid ring A [verteporfin, reference compound]
- cells exhibiting DNA fragmentation relative to cells treated with light alone (Jurkat T cells; verteporfin 2 ng/ml, light 5 J/cm^2, 24 hours): Five times
- cells exhibiting DNA fragmentation (sub-diploid DNA levels) (Jurkat T cells; verteporfin 5 ng/ml): a minor proportion of cells
- cells exhibiting DNA fragmentation (sub-diploid DNA levels) (Jurkat T cells; verteporfin 15 ng/ml): the vast majority of cells
- cell viability (HeLa/Bcl-2 cells; [3]): some loss in viability
- cell viability (HeLa/Bcl-xL cells; [3]): some loss in viability
- cell viability (HeLa/neo cells; [3]): some loss in viability
